Experimental findings from US12384797B2, “Thioeno[3,2-b] pyridin-7-amine compounds for treating familial dysautonomia” (PTC THERAPEUTICS, INC., priority 2019, dated 2025) are described below.

Structures are written as SMILES.

The subject of this assay is Elongator complex protein 1 (ELP1, also referred to as IKBKAP). Nature of the assay: IKBKAP-HTRF assay (IKBKAP protein in lysates of FD patient-derived fibroblasts). The conditions noted are these: 48 hours incubation, 7-point concentration curve. The class given is cell-based, human. The method, boiled down:
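Sandwich HTRF with two labelled anti-IKAP antibodies (overnight, 4 °C) measured IKBKAP in lysates of FD patient fibroblasts. Cells were exposed to compound for 48 h at 37 °C (7-point curve, 3.16-fold steps, triplicates). EC2x is the dose doubling IKBKAP versus DMSO control; MFI is sample ΔF divided by vehicle ΔF.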
On the technique in general: TR-FRET usually uses a lanthanide donor and a delayed reading to cut background.
Take `CSC[C@H](N)Cc1sc2c(NCc3ccco3)cc(Cl)nc2c1Cl` [Compound 114, 2-[(2R)-2-amino-3-(methylsulfanyl)propyl]-3,5-dichloro-N-[(furan-2-yl)methyl]thieno[3,2-b]pyridin-7-amine]: the “EC2x for IKBKAP protein expression (concentration producing two times the amount of IKBKAP protein vs DMSO vehicle control)” value is listed as “***** (≤0.005 μM is indicated by five stars (*****))” and the “MFI (maximum fold increase in IKBKAP protein abundance relative to the vehicle control)” value was “***** (>4.9 is indicated by five stars (*****))”.
In the same order, the values of `Cc1c(C[C@@H](N)C(=O)O)sc2c(NCc3ccco3)cc(Cl)nc12` [Compound 115, 3-(5-chloro-7-{[(furan-2-yl)methyl]amino}-3-methylthieno[3,2-b]pyridin-2-yl)-D-alanine] are “***** (≤0.005 μM is indicated by five stars (*****))” and “***** (>4.9 is indicated by five stars (*****))”.
Take `Cc1c(C[C@@H](N)C(=O)N(C)C)sc2c(NCc3ccco3)cc(Cl)nc12` [Compound 116, 3-(5-chloro-7-{[(furan-2-yl)methyl]amino}-3-methylthieno[3,2-b]pyridin-2-yl)-N,N-dimethyl-D-alaninamide]: the “EC2x for IKBKAP protein expression (concentration producing two times the amount of IKBKAP protein vs DMSO vehicle control)” value was “**** (between >0.005 μM and ≤0.02 μM is indicated by four stars (****))”; the “MFI (maximum fold increase in IKBKAP protein abundance relative to the vehicle control)” value is on record as “***** (>4.9 is indicated by five stars (*****))”.
With `CS(=O)(=O)C[C@H](N)Cc1sc2c(NCc3ccco3)cc(Cl)nc2c1Br` [Compound 117, 2-[(2R)-2-amino-3-(methanesulfonyl)propyl]-3-bromo-5-chloro-N-[(furan-2-yl)methyl]thieno[3,2-b]pyridin-7-amine], the “EC2x for IKBKAP protein expression (concentration producing two times the amount of IKBKAP protein vs DMSO vehicle control)” value is “**** (between >0.005 μM and ≤0.02 μM is indicated by four stars (****))”; the “MFI (maximum fold increase in IKBKAP protein abundance relative to the vehicle control)” value is recorded as “***** (>4.9 is indicated by five stars (*****))”.
Consider `CSC[C@H](N)Cc1sc2c(NCc3ccco3)cc(Cl)nc2c1Br` [Compound 118, 2-[(2R)-2-amino-3-(methylsulfanyl)propyl]-3-bromo-5-chloro-N-[(furan-2-yl)methyl]thieno[3,2-b]pyridin-7-amine], for which the “EC2x for IKBKAP protein expression (concentration producing two times the amount of IKBKAP protein vs DMSO vehicle control)” value is given as “***** (≤0.005 μM is indicated by five stars (*****))” and the “MFI (maximum fold increase in IKBKAP protein abundance relative to the vehicle control)” value is “***** (>4.9 is indicated by five stars (*****))”.
As for `C=C[C@H](N)Cc1cc2nc(Cl)cc(NCc3ccco3)c2s1` [Compound 119, 2-[(2R)-2-aminobut-3-en-1-yl]-5-chloro-N-[(furan-2-yl)methyl]thieno[3,2-b]pyridin-7-amine], the “EC2x for IKBKAP protein expression (concentration producing two times the amount of IKBKAP protein vs DMSO vehicle control)” value was “**** (between >0.005 μM and ≤0.02 μM is indicated by four stars (****))”; the “MFI (maximum fold increase in IKBKAP protein abundance relative to the vehicle control)” value is “**** (between >3.9 and ≤4.9 is indicated by four stars (****))”.
`N[C@H](Cc1sc2c(NCc3ccco3)cc(Cl)nc2c1Cl)C(=O)Nc1ccccc1F` [Compound 120, 3-(3,5-dichloro-7-{[(furan-2-yl)methyl]amino}thieno[3,2-b]pyridin-2-yl)-N-(2-fluorophenyl)-D-alaninamide]: the “EC2x for IKBKAP protein expression (concentration producing two times the amount of IKBKAP protein vs DMSO vehicle control)” value is “**** (between >0.005 μM and ≤0.02 μM is indicated by four stars (****))”; the “MFI (maximum fold increase in IKBKAP protein abundance relative to the vehicle control)” value is “**** (between >3.9 and ≤4.9 is indicated by four stars (****))”.
For `N[C@H](Cc1sc2c(NCc3ccco3)cc(Cl)nc2c1Cl)C(=O)O` [Compound 121, 3-(3,5-dichloro-7-{[(furan-2-yl)methyl]amino}thieno[3,2-b]pyridin-2-yl)-D-alanine], the “EC2x for IKBKAP protein expression (concentration producing two times the amount of IKBKAP protein vs DMSO vehicle control)” value was “**** (between >0.005 μM and ≤0.02 μM is indicated by four stars (****))”; the “MFI (maximum fold increase in IKBKAP protein abundance relative to the vehicle control)” value is “**** (between >3.9 and ≤4.9 is indicated by four stars (****))”.
In the case of `N[C@H](Cc1sc2c(NCc3ccco3)cc(Cl)nc2c1Cl)C(=O)Nc1ccccc1` [Compound 122, 3-(3,5-dichloro-7-{[(furan-2-yl)methyl]amino}thieno[3,2-b]pyridin-2-yl)-N-phenyl-D-alaninamide], the “EC2x for IKBKAP protein expression (concentration producing two times the amount of IKBKAP protein vs DMSO vehicle control)” value was “**** (between >0.005 μM and ≤0.02 μM is indicated by four stars (****))”; the “MFI (maximum fold increase in IKBKAP protein abundance relative to the vehicle control)” value is given as “***** (>4.9 is indicated by five stars (*****))”.
Consider `C#C[C@H](N)Cc1sc2c(NCc3ccco3)cc(Cl)nc2c1C` [Compound 123, 2-[(2R)-2-aminobut-3-yn-1-yl]-3-methyl-5-chloro-N-[(furan-2-yl)methyl]thieno[3,2-b]pyridin-7-amine], for which the “EC2x for IKBKAP protein expression (concentration producing two times the amount of IKBKAP protein vs DMSO vehicle control)” value is on record as “***** (≤0.005 μM is indicated by five stars (*****))” and the “MFI (maximum fold increase in IKBKAP protein abundance relative to the vehicle control)” value is “***** (>4.9 is indicated by five stars (*****))”.
In the case of `N[C@H](Cc1sc2c(NCc3ccco3)cc(Cl)nc2c1Cl)C(=O)Nc1ccccc1F` [Compound 124, 3-(3,5-dichloro-7-{[(furan-2-yl)methyl]amino}thieno[3,2-b]pyridin-2-yl)-N-(2-fluorophenyl)-D-alaninamide], the “EC2x for IKBKAP protein expression (concentration producing two times the amount of IKBKAP protein vs DMSO vehicle control)” value was “**** (between >0.005 μM and ≤0.02 μM is indicated by four stars (****))”; the “MFI (maximum fold increase in IKBKAP protein abundance relative to the vehicle control)” value is “***** (>4.9 is indicated by five stars (*****))”.
With `C[C@H](F)[C@H](N)Cc1sc2c(NCc3nccs3)cc(Cl)nc2c1Br` [Compound 125, 2-[(2R,3S)-2-amino-3-fluorobutyl]-3-bromo-5-chloro-N-[(1,3-thiazol-2-yl)methyl]thieno[3,2-b]pyridin-7-amine], the “EC2x for IKBKAP protein expression (concentration producing two times the amount of IKBKAP protein vs DMSO vehicle control)” value is recorded as “***** (≤0.005 μM is indicated by five stars (*****))” and the “MFI (maximum fold increase in IKBKAP protein abundance relative to the vehicle control)” value is reported as “***** (>4.9 is indicated by five stars (*****))”.
The corresponding values for `Cc1c(C[C@@H](N)[C@H](C)F)sc2c(NCc3cccs3)cc(Cl)nc12` [Compound 126, 2-[(2R,3S)-2-amino-3-fluorobutyl]-5-chloro-3-methyl-N-[(thiophen-2-yl)methyl]thieno[3,2-b]pyridin-7-amine] are “***** (≤0.005 μM is indicated by five stars (*****))” and “***** (>4.9 is indicated by five stars (*****))”.
With `C[C@H](N)C(O)c1sc2c(NCc3cccs3)cc(Cl)nc2c1Cl` (stereo partly drawn) [Compound 127, (2S)-2-amino-1-(3,5-dichloro-7-{[(thiophen-2-yl)methyl]amino}thieno[3,2-b]pyridin-2-yl)propan-1-ol], the “EC2x for IKBKAP protein expression (concentration producing two times the amount of IKBKAP protein vs DMSO vehicle control)” value was “**** (between >0.005 μM and ≤0.02 μM is indicated by four stars (****))”; the “MFI (maximum fold increase in IKBKAP protein abundance relative to the vehicle control)” value is given as “***** (>4.9 is indicated by five stars (*****))”.
For the compound `Cc1c(C[C@@H](N)[C@H](C)F)sc2c(NCc3nccs3)cc(Cl)nc12` [Compound 128, 2-[(2R,3S)-2-amino-3-fluorobutyl]-5-chloro-3-methyl-N-[(1,3-thiazol-2-yl)methyl]thieno[3,2-b]pyridin-7-amine], the “EC2x for IKBKAP protein expression (concentration producing two times the amount of IKBKAP protein vs DMSO vehicle control)” value is given as “***** (≤0.005 μM is indicated by five stars (*****))” and the “MFI (maximum fold increase in IKBKAP protein abundance relative to the vehicle control)” value is on record as “***** (>4.9 is indicated by five stars (*****))”.
For `Cc1c(C[C@H](C)N)sc2c(NCc3ncc(F)s3)cc(Cl)nc12` [Compound 129, 2-[(2S)-2-aminopropyl]-5-chloro-N-[(5-fluoro-1,3-thiazol-2-yl)methyl]-3-methylthieno[3,2-b]pyridin-7-amine], the “EC2x for IKBKAP protein expression (concentration producing two times the amount of IKBKAP protein vs DMSO vehicle control)” value was “**** (between >0.005 μM and ≤0.02 μM is indicated by four stars (****))”; the “MFI (maximum fold increase in IKBKAP protein abundance relative to the vehicle control)” value is on record as “***** (>4.9 is indicated by five stars (*****))”.
As to `C[C@H](N)C(F)c1sc2c(NCc3cccs3)cc(Cl)nc2c1Cl` (stereo partly drawn) [Compound 130, 2-[(2S)-2-amino-1-fluoropropyl]-3,5-dichloro-N-[(thiophen-2-yl)methyl]thieno[3,2-b]pyridin-7-amine], the “EC2x for IKBKAP protein expression (concentration producing two times the amount of IKBKAP protein vs DMSO vehicle control)” value is reported as “***** (≤0.005 μM is indicated by five stars (*****))” and the “MFI (maximum fold increase in IKBKAP protein abundance relative to the vehicle control)” value was “***** (>4.9 is indicated by five stars (*****))”.
Turning to `COC(=O)[C@H](N)Cc1sc2c(NCc3ccco3)cc(Cl)nc2c1C` [Compound 131, methyl 3-(5-chloro-7-{[(furan-2-yl)methyl]amino}-3-methylthieno[3,2-b]pyridin-2-yl)-D-alaninate], the “EC2x for IKBKAP protein expression (concentration producing two times the amount of IKBKAP protein vs DMSO vehicle control)” value is “**** (between >0.005 μM and ≤0.02 μM is indicated by four stars (****))”; the “MFI (maximum fold increase in IKBKAP protein abundance relative to the vehicle control)” value is “**** (between >3.9 and ≤4.9 is indicated by four stars (****))”.
Consider `C[C@H](N)C(F)(F)c1sc2c(NCc3cccs3)cc(Cl)nc2c1Cl` [Compound 132, 2-[(2S)-2-amino-1,1-difluoropropyl]-3,5-dichloro-N-[(thiophen-2-yl)methyl]thieno[3,2-b]pyridin-7-amine], for which the “EC2x for IKBKAP protein expression (concentration producing two times the amount of IKBKAP protein vs DMSO vehicle control)” value is “**** (between >0.005 μM and ≤0.02 μM is indicated by four stars (****))”; the “MFI (maximum fold increase in IKBKAP protein abundance relative to the vehicle control)” value is listed as “***** (>4.9 is indicated by five stars (*****))”.
In the case of `Cc1c(C[C@@H](N)C(=O)Nc2ccc(C#N)cc2)sc2c(NCc3ccco3)cc(Cl)nc12` [Compound 133, 3-(5-chloro-7-{[(furan-2-yl)methyl]amino}-3-methylthieno[3,2-b]pyridin-2-yl)-N-(4-cyanophenyl)-D-alaninamide], the “EC2x for IKBKAP protein expression (concentration producing two times the amount of IKBKAP protein vs DMSO vehicle control)” value is given as “***** (≤0.005 μM is indicated by five stars (*****))” and the “MFI (maximum fold increase in IKBKAP protein abundance relative to the vehicle control)” value is listed as “***** (>4.9 is indicated by five stars (*****))”.
